Results on one molecule are retold here after paper PMC6481345, “A novel anti-melanoma SRC-family kinase inhibitor” (Oncotarget, 2019).

In general, pIC50 refers to −log10 of the IC50, conventionally taken in molar units. A lower pIC50 goes with a high IC50.

One assay deals with YUSIK melanoma tumors. Description: In vivo tumor growth, YUSIK melanoma xenograft. Particulars: YUSIK tumor bearing nude mice, 20 mg/kg daily intraperitoneal from day 12, vs solvent control; 6 mice; p = 0.0006. The procedure:
All procedures involving animals were approved by the Institutional Animal Care and Use Committee of Yale University. YUSIK melanoma cells were grown to 80% confluency in 150 cm^2 flasks, detached by trypsinization, washed with PBS, and cell pellets were resuspended in 1:1 mixture of PBS and matrigel (BD Bioscience Cat #354234) to sustain cell viability. The cells (4 × 10^6/100 µl) were injected subcutaneously in the back flank of six weeks old female athymic Nude-Foxn1nu (nu/nu) mice (Charles River Laboratories, Wilmington, MA), and tumors were measuring daily with a caliper (length, width, and depth). When tumors reached palpable size (between 25–40 mm^3), the animals were randomized by tumor size and body weigh into two groups and were daily injected intraperitoneally with SAB298 (batch #AU0588-91, Sabila Biosciences LLC, 5 Overlook Road, New City, New York, 10956) or vehicle as controls (N = 6/each). […] The vehicle contained the same reagents but without SAB298.

A further assay deals with tyrosinase. Description: Western blot, tyrosinase levels. The assay is classed as cell-based, human. As to conditions: YUSIK, YUKIM and YUPEET; 0.5 µM for 20 hrs. The procedure: (§1) We used standard techniques to identify changes in intracellular signaling in response to various treatments. Briefly, melanoma cells were incubated with test compounds, using DMSO as a control, collected by scraping on ice, and lysed in RIPA buffer supplemented with protease and phosphatase inhibitors (MA #78428, and #78425, respectively, Thermo Fisher Scientific, Waltham, MA). Protein concentrations were measured with the BioRad kit (Bio-Rad Laboratories, Hercules, CA), SDS sample buffer was added, extracts were heated at 95°C, sonicated and centrifuged. Cell extracts (20 µg/lane) were fractionated in 3%–8% or 4–12 % tris-acetate gel (NP0006, NuPAGE Life Technologies). […]
(A western blot detects proteins with antibodies after separation by electrophoresis.)

A further assay deals with T1, EGFR (Homo sapiens, UniProt P00533).
T1 construct: we tested the endogenous kinome response to SAB298; host or cells: YUSIV and YUSIK melanoma cell lysates
Description: KiNativ in situ kinase profiling in melanoma cell lysates. The assay is classed as binding. As to conditions: 3-point dose response. The procedure: (§2) The effect of SAB298 on a panel of 36 recombinant kinases, was screed with the radioisotope filter binding assay employing 10 concentrations of the compound with 10 µM ATP (Reaction Biology Corporation, Malvern, PA). In addition, we tested the endogenous kinome response to SAB298 (0.05 µM, 0.5 µM and 5 µM) in lysates from two melanoma cell lines (YUSIV and YUSIK) employing the KiNativ® platform (ActivX Biosciences Inc., La Jolla, CA). KiNativ® is a robust, high performance mass spectrometry (LC-MS^2) assay that uses biotinylated probes to measure relevant changes in the affinity to the ATP-binding sites of 205 native kinases as a function of cellular context. We also validated SAB298 effect on the activity of SRC-family kinases by probing for phosphorylated Y416, the marker of activated SFKs, with anti-IEDNEpYTAR antibodies (also known as Y419, #2101, Cell Signaling Technology, Beverly, MA). In some cases the cells were incubated overnight with 20 µM proteasome inhibitor MG-132 (CAS 133407-82-6, Millipore Sigma, Burlington, MA) to rescue degradation.

The next assay deals with T2, MEK5 (Homo sapiens, UniProt Q13163).
T2 construct: we tested the endogenous kinome response to SAB298; host or cells: YUSIV and YUSIK melanoma cell lysates
The assay is described as above. The assay is classed as binding. As to conditions: 3-point dose response. The procedure: as §2

A further assay concerns the target T3, RIPK2 (Homo sapiens, UniProt O43353).
T3 construct: we tested the endogenous kinome response to SAB298; host or cells: YUSIV or YUSIK melanoma cell lysate
Described as above. The assay is classed as binding. Particulars: RIPK2 in YUSIK lysate; 3-point dose response. The procedure:
as §2

The target of a further assay is T4, mTOR (Homo sapiens, UniProt P42345).
T4 construct: we tested the endogenous kinome response to SAB298; host or cells: YUSIV and YUSIK melanoma cell lysates
Described as above. The assay is classed as binding. As to conditions: 3-point dose response. The procedure:
as §2

The next assay concerns the target T5, MEK1 (Homo sapiens, UniProt Q02750).
T5 construct: we tested the endogenous kinome response to SAB298; host or cells: YUSIV or YUSIK melanoma cell lysate
Described as above. The assay is classed as binding. As to conditions: MEK1 in YUSIV lysate; 3-point dose response. The procedure:
as §2

Another assay has as its target T6, ERBB3 (Homo sapiens, UniProt P21860).
T6 construct: we tested the endogenous kinome response to SAB298; host or cells: YUSIV and YUSIK melanoma cell lysates
The assay is described as above. The assay is classed as binding. Particulars: 3-point dose response. The procedure:
as §2

A further assay has as its system phospho-ERBB2 Y1196. The experiment in a line: Western blot, phospho-ERBB2. The assay is classed as cell-based, human. Particulars: YUSOC, YUROB, YUSIV, YUTOGS. The procedure: as §1

pIC50: −log10 of the molar value.

T1 sequence (P00533 25-1210): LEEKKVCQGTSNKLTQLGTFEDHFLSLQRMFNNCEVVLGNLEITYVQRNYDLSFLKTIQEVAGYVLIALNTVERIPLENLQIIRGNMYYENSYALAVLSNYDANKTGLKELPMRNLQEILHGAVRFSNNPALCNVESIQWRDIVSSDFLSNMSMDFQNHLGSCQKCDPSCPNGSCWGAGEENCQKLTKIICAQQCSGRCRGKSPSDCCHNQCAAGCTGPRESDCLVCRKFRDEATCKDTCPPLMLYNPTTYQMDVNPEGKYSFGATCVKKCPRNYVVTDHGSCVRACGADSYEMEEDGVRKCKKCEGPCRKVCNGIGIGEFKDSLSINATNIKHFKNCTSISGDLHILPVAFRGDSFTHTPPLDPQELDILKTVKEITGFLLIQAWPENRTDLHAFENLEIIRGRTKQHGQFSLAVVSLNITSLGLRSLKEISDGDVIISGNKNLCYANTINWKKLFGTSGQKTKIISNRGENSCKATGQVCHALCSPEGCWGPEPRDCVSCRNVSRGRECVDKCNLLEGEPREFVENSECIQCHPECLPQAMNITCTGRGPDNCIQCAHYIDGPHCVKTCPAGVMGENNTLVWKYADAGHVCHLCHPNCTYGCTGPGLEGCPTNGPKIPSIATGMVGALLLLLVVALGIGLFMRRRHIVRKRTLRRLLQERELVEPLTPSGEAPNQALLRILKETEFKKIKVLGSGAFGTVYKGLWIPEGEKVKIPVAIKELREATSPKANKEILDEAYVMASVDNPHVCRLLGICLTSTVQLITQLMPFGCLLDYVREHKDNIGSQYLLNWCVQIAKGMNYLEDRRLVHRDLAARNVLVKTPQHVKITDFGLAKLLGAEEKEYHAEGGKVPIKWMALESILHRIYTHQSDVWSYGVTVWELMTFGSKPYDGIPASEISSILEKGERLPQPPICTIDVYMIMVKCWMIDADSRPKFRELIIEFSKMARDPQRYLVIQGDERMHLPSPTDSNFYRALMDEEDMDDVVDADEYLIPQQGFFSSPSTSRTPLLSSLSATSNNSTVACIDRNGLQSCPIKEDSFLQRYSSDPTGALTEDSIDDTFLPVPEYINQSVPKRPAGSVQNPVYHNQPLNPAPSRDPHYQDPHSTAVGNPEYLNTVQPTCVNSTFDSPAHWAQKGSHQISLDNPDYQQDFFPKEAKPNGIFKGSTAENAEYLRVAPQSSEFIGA
T2 sequence (Q13163 whole entry): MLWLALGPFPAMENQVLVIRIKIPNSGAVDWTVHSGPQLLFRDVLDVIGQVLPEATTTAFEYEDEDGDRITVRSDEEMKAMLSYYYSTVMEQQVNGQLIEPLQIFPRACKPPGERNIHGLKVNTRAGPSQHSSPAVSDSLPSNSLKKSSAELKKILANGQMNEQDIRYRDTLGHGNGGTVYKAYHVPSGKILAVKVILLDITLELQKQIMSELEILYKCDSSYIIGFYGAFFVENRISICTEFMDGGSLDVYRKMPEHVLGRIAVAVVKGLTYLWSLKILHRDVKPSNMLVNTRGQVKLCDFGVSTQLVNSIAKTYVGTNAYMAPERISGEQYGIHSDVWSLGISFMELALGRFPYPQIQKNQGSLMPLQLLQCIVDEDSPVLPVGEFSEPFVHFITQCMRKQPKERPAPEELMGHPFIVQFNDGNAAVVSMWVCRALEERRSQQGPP
T6 sequence (P21860 20-1342): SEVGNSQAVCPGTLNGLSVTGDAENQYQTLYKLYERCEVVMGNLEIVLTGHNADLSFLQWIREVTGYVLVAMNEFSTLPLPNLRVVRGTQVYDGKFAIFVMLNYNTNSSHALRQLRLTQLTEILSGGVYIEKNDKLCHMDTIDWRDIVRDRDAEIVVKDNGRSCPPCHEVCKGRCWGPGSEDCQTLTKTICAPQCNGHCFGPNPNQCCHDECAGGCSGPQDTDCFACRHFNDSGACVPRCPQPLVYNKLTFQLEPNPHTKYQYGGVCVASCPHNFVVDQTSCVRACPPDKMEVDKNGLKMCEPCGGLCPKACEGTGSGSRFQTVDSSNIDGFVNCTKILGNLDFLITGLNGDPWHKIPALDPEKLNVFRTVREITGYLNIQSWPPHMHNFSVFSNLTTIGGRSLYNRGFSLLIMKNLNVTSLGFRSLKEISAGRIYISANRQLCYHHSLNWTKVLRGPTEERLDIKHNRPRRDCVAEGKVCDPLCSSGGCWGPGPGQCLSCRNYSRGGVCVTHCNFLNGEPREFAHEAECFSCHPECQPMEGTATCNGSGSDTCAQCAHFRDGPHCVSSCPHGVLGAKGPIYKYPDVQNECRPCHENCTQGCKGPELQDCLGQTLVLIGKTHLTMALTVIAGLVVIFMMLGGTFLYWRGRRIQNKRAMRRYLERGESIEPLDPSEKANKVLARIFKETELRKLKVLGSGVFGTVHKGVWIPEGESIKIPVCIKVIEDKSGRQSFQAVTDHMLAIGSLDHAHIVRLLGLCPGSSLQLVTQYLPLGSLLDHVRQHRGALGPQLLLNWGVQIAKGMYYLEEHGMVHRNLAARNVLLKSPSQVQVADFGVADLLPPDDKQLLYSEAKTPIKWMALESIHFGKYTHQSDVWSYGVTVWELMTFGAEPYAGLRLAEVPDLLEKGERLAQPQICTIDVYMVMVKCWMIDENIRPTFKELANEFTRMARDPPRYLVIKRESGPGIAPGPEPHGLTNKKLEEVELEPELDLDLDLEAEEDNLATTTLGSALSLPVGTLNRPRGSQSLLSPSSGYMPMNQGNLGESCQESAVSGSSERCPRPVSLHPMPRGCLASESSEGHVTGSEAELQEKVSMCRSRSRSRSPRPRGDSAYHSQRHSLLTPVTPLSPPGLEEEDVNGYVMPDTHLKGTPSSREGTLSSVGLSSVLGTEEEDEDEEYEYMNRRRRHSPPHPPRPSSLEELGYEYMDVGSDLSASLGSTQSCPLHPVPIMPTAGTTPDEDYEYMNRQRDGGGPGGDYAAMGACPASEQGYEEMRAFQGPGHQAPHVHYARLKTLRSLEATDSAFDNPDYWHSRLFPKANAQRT
T5 sequence (Q02750 whole entry): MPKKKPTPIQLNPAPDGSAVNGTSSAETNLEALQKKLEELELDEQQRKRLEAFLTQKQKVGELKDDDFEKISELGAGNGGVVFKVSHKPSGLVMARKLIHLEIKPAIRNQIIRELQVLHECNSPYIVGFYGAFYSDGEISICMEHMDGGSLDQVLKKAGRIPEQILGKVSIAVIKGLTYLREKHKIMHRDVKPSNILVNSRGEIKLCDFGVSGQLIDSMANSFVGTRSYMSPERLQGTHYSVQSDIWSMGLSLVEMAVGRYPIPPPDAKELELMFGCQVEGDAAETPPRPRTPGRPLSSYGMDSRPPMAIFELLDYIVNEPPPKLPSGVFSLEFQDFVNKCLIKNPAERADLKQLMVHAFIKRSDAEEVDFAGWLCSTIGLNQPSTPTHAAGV
T3 sequence (O43353 whole entry): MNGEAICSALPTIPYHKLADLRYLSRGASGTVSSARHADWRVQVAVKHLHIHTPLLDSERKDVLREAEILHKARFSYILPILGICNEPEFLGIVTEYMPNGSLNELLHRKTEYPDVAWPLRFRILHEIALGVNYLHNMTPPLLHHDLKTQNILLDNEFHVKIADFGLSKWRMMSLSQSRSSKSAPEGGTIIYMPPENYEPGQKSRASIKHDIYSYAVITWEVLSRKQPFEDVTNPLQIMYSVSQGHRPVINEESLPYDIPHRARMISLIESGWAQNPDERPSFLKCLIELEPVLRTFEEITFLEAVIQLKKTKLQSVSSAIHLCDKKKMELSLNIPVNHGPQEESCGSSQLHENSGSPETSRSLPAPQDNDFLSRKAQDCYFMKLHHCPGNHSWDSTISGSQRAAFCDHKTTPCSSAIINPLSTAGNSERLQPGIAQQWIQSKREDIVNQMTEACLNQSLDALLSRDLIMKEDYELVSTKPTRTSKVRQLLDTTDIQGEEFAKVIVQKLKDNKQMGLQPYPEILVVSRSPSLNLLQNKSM

Consider `Nc1ncnc2c1c(-c1ccc(Oc3ccccc3)cc1)nn2C[C@@H]1SSC[C@@H]1O` [SAB298, (3S, 4S)-3-((4-amino-3-(4-phenoxyphenyl)-1H-pyrazolo[3,4-d]pyrimidin-1-yl)methyl)-1,2-dithiolan-4-ol], for which the Tumor growth result in the assay with YUSIK melanoma tumors is “significantly suppressed the growth”. Moreover, the tyrosinase levels result in the assay on tyrosinase is “suppressed the levels of tyrosinase”. Further, the pIC50 on EGFR (EGFR in YUSIK lysate) is 6.28; against EGFR (EGFR in YUSIV lysate), 5.89; at MEK5 (MEK5 in YUSIK lysate) it was 5.82; at MEK5 (MEK5 in YUSIV lysate) it was 6.43; against RIPK2, 7.70; against mTOR (mTOR in YUSIK lysate), 5.70. Moreover, the pIC50 was 5.89 on mTOR (mTOR in YUSIV lysate), 5.54 against MEK1, 6.62 on ERBB3 (ERBB3 in YUSIK lysate) and 6.54 against ERBB3 (ERBB3 in YUSIV lysate). The “phospho-ERBB2 Y1196 level” value with phospho-ERBB2 Y1196 is “suppressed phospho-ERBB2 Y1196”.
